Row | SMILES | melting point [°C]
1 | CCCCCCc1ccc(C=CC(=O)c2ccc(OCC=C(C)C)cc2OCC(=O)O)cc1 | 106 to 108
2 | O=C1NC(=O)C(c2ccccc2Cl)O1 (stereo unspecified) | 106 to 108
3 | Cn1c(CNC(=O)c2cc3ccccc3[nH]2)c(-c2ccccc2)c2cc(Cl)ccc2c1=O | > 305
4 | COc1ccc(Sc2ccc(C=[N+]([O-])C(C)(C)C)o2)cc1 | 91.7
5 | COc1ccc2cc(C(C)=CC(=O)O)cc(F)c2c1 | 214 to 217
6 | C=CCOc1ccc(-c2ccc(C(=O)OC)cc2)cc1 | 149
7 | COC(=O)c1cc2c3c(cc(OCc4ccccc4)c2[nH]1)N(C(=O)OC(C)(C)C)C[C@H]3COC(C)=O | 128 to 130
8 | CN(C(=O)Cn1c(-c2ccc(Cl)cc2)nc2cccnc21)c1ccccc1 | 170 to 171
9 | CCCOc1nsc(NC(=O)C(C)C)c1C(N)=O | 153 to 154
10 | COc1cc(Br)c(C=O)cc1OCc1ccccc1 | 140 to 141
11 | Cc1ccccc1C(=O)c1ccc(Nc2ccccc2NC(=O)CO)cc1Cl | 127 to 129
12 | COc1ccc(C2(COc3cccc4cc(NS(=O)(=O)C(F)(F)F)ccc34)N=CNO2)cc1 (stereo unspecified) | 146 to 148
13 | CSC[C@H](Nc1cc(F)ccc1[N+](=O)[O-])C(=O)O | 147
14 | CC(=O)c1ccc(C(=O)CCl)s1 | 94 to 95
15 | ClC1=Nc2ccccc2Sc2ccccc21 | 93 to 97
16 | CC(CC(=O)O)C(=O)c1ccc(N2CCOCC2)c([N+](=O)[O-])c1 (stereo unspecified) | 127 to 129
17 | Cn1nc(-c2ccc(Cl)cc2)n(Cc2ccccc2)c1=O | 90 to 91
18 | COc1ccc(-c2cc(C)cn2-c2ccc(S(N)(=O)=O)cc2)cc1F | 170 to 173
19 | CCC(CC)O[C@@H]1C=C(C(=O)O)C[C@H](CC2CO2)[C@H]1NC(C)=O (stereo partly specified) | 115 to 116
20 | CC1(O)CC(C)(C)N(N=Cc2ccccc2)C(C)(C)C1 | 84
21 | CCOC(=O)N(C)CCCC1c2cccc3c2N(CC3)c2ccccc2N1C(C)=O (stereo unspecified) | 125 to 128
22 | COc1ccc(C=C(C)c2cc(OC)sc2C)cc1 | 112 to 113
23 | Oc1ccc(Nc2nccc(-c3ccncc3)n2)cc1 | 268 to 270
24 | CC(C)Oc1cc(/C=C/C(=O)O)n(Cc2ncc(C(F)(F)F)cc2Cl)n1 | 130 to 132
25 | Cc1c(-c2cnccn2)ssc1=S | 164
26 | COc1ccc2c(c1)c(Cc1cc(=O)n(-c3ccc(C)cc3)[nH]1)c(C)n2C(=O)c1ccc(Cl)cc1 | 131 to 133

Row | SMILES | melting point [°C]
27 | O=S1CCN(c2nc(N3CCOCC3)nc(-n3c(C(F)F)nc4ccccc43)n2)CC1 | 225 to 226
28 | CN1Cc2c(CO)ncn2-c2ccccc2C1=O | 219 to 221
29 | CCOC(=O)c1ncn2c1CN=C(c1ccccc1)c1cc(C#CC(C)(C)C)ccc1-2 | 155 to 156
30 | O=C(Nc1ccc(N2CCCC2)nc1)c1cc2ccc(C(F)(F)F)nc2n1Cc1cccc(F)c1 | 204 to 205
31 | Cc1c(NCCCNCC(O)COc2ccccc2)n(C)c(=O)n(C)c1=O (stereo unspecified) | 132 to 133
32 | OCC(Nc1ccnc2cc(Cl)ccc12)c1ccccc1 (stereo unspecified) | 220 to 221
33 | COc1ccc(C(=O)N(C(=O)c2ccc(OC)cc2)c2nc3ccc(N4CCOCC4)cc3c(NCc3ccccc3)c2C#N)cc1 | 157
34 | Cc1ccc(Cl)c(-c2cc(=O)c3c(O)cc(O)c([C@@H]4CCN(C)[C@H]4CO)c3o2)c1 | 206 to 208
35 | CCOC(=O)COc1cccc(C(=O)Nc2ccccc2Sc2ccccc2-c2nnn[nH]2)c1 | 130 to 133
36 | COc1cc2c(cc1OC)C(Oc1ccccc1)CN(CCCOc1ccccc1)CC2 (stereo unspecified) | 95 to 100
37 | CCOC(=O)Cc1c2cc(OC)ccc2n2c(Cc3ccccn3)nccc12 | 103 to 104
38 | O=C(O)CCc1nnc2c(=O)[nH]c3cc(C(F)(F)F)ccc3n12 | 333
39 | O=C(O)c1cn(-c2ccc(Br)cc2)c(-c2ccc(Cl)cc2Cl)n1 | 138 to 142
40 | CSc1sc(S(C)(=O)=O)cc1C#N | 126 to 128
41 | O=c1c2ccc(Cl)cc2n(Cc2ccccc2)n2cccc12 | 163 to 165
42 | CCCCCCCCCCC(=O)NCCCCCCCCCCCC(=O)O | 102 to 104
43 | CCOC(=O)c1ncc2[nH]c3cccc(Oc4ccc(Cl)cn4)c3c2c1COC | 156 to 158
44 | CSc1cccc(Oc2ncc(F)cc2C(=O)N[C@@H]2CCCC[C@@H]2O)c1 (relative stereo) | 99 to 101
45 | CNc1nccc(-c2c(-c3ccc(F)cc3)ccn2C2CCNCC2)n1 | 189 to 191
46 | CC(C)CN(OCc1ccccc1)C(=O)Nc1ccccc1 | 85 to 87
47 | CN(C)c1ccc(C(=N)Nc2cccc(NC(=O)C=Cc3ccccc3)c2)cc1 | 225 to 227
48 | C#CC(C)(C)N1CCN(C(=O)OC(C)(C)C)CC1 | 106 to 107
49 | Cc1oc(C=Cc2ccc(Cl)cc2)nc1C(=O)O | 244 to 245
50 | O=C1c2ccccc2C(=O)C1(O)c1ccccc1O | 155 to 159
51 | Clc1ccc(-c2ccc3nncn3c2)cc1 | 259 to 262

— a melting point compilation (Tetko et al.; mined from patent text by program, amines drawn as free bases though some values may be those of a salt)
